Experiments:
[1] = target: Serine/threonine-protein kinase MARK1 (Homo sapiens) (UniProt Q9P0L2); experiment: Selectivity interaction (KinomeScan (DiscoverX)) EUB0000229b MARK1; details: at 10 µM
[2] = target: T1, Dual specificity mitogen-activated protein kinase kinase 6 (Homo sapiens) (UniProt P52564); experiment: Selectivity interaction (Upstate Kinase Profiler service (Millipore)) EUB0000056c MAP2K6; details: at 1 µM
T1 sequence (whole entry): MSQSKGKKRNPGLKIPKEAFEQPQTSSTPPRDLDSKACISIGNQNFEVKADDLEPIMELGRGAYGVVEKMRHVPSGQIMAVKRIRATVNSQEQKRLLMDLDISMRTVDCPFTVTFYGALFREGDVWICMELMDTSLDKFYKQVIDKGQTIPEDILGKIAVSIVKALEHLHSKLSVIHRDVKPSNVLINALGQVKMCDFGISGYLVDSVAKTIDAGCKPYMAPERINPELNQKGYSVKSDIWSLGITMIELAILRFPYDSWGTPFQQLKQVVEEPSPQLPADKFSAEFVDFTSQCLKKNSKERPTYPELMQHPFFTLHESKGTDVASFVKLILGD

[3] = target: T2, Tyrosine-protein kinase Mer (Homo sapiens) (UniProt Q12866); details: at 10 µM
T2 sequence (whole entry): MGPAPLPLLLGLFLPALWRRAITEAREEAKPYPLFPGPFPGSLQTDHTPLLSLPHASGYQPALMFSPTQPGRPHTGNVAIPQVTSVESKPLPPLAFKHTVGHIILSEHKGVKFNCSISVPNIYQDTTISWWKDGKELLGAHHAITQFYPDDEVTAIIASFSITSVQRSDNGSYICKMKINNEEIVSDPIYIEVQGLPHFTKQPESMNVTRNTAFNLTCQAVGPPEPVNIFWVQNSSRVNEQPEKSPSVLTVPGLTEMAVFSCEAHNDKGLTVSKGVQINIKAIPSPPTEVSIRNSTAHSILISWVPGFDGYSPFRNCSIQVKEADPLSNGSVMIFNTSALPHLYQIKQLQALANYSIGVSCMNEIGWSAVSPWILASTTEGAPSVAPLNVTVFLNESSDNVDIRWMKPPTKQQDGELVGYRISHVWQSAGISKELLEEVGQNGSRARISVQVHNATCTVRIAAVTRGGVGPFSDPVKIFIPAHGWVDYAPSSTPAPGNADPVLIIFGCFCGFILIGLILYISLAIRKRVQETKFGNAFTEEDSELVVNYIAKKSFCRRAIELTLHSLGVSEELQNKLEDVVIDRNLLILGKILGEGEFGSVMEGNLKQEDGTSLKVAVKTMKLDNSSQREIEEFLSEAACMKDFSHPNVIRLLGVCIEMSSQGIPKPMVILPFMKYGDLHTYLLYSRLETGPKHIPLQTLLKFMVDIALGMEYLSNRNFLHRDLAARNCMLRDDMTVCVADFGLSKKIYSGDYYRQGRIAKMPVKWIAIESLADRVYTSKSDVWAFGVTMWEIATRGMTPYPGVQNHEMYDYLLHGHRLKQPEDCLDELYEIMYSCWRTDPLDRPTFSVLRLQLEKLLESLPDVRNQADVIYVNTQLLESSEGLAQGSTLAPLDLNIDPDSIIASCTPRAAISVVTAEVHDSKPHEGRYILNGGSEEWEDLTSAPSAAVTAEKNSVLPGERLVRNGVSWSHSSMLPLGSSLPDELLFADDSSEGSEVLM

[4] = target: Dual specificity mitogen-activated protein kinase kinase 1 (Homo sapiens, UniProt Q02750); experiment: Selectivity interaction (ActivX KiNativ screen (kinase selectivity in THP-1 cell lysates)) EUB0000639a MAP2K1; type: subcellular; details: lysate, at 5 µM
[5] = target: MAP kinase-interacting serine/threonine-protein kinase 2 (Homo sapiens, UniProt Q9HBH9); experiment: Selectivity interaction (KinomeScan (DiscoverX)) EUB0001049a MKNK2; details: at 1 µM
[6] = target: T3, Ephrin type-B receptor 3 (Homo sapiens) (UniProt P54753); experiment: Selectivity interaction (Ambit KINOMEscan and KiNATiv profiling in Jurkat cells) EUB0000090b EPHB3; type: cell-based; details: at 1 µM
T3 sequence (whole entry): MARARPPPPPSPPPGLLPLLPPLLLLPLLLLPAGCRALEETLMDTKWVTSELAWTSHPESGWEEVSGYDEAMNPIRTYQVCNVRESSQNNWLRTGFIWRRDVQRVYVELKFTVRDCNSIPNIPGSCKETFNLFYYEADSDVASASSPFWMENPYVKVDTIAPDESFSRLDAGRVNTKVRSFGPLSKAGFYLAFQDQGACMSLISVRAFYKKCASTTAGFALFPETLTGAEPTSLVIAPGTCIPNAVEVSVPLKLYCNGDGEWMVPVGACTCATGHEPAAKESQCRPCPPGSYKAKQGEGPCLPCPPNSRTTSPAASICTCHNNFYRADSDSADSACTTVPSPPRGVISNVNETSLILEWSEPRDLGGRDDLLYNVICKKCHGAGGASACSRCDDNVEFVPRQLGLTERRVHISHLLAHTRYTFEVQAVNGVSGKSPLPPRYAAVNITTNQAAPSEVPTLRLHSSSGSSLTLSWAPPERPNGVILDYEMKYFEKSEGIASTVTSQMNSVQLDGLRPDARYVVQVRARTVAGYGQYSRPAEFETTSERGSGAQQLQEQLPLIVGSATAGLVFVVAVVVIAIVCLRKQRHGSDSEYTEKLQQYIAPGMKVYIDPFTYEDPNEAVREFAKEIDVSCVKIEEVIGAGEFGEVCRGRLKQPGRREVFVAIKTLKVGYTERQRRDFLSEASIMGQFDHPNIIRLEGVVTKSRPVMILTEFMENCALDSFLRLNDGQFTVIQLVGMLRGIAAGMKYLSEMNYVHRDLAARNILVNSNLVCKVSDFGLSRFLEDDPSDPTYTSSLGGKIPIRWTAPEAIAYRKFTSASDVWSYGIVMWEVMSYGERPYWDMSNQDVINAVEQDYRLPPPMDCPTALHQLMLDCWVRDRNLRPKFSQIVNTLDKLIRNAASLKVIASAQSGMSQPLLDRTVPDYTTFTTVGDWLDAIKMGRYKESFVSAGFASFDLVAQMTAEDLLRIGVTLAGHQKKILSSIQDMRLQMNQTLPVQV

[7] = target: T4, Serine/threonine-protein kinase Sgk2 (Homo sapiens) (UniProt Q9HBY8); experiment: Selectivity interaction (Kinase screening (Nanosyn)) EUB0000604a SGK2
T4 sequence (whole entry): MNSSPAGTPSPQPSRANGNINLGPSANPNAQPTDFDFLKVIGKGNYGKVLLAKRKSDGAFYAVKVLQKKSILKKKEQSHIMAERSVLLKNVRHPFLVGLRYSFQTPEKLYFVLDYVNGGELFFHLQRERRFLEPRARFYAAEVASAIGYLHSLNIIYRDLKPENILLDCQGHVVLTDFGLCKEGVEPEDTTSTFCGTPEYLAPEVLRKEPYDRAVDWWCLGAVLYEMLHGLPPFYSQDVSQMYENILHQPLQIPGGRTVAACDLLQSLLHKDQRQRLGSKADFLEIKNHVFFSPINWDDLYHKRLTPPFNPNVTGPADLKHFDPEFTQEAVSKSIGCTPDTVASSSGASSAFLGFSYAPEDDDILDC

Sequence of Serine/threonine-protein kinase MARK1 (Homo sapiens) (Q9P0L2 whole entry, looked up): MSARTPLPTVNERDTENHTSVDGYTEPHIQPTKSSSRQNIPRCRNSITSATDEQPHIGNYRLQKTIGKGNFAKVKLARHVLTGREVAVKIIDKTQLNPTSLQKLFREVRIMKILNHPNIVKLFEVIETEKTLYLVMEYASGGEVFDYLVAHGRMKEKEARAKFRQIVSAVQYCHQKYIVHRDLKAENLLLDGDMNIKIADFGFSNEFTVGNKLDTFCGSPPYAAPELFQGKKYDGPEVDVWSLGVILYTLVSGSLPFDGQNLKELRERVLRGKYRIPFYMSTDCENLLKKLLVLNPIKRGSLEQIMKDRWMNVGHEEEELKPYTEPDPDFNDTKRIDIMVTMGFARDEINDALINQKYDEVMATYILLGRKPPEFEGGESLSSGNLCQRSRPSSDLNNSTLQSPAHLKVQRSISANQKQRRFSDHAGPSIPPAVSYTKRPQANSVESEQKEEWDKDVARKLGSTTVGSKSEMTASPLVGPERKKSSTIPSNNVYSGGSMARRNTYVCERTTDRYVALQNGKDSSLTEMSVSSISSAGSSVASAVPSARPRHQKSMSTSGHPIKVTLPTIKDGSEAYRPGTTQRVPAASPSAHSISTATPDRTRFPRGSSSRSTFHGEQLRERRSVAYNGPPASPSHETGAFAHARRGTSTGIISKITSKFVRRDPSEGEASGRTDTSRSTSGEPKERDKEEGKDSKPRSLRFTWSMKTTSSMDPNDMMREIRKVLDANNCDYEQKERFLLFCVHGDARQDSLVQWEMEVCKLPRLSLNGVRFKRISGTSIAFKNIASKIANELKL
Sequence of Dual specificity mitogen-activated protein kinase kinase 1 (Q02750 whole entry): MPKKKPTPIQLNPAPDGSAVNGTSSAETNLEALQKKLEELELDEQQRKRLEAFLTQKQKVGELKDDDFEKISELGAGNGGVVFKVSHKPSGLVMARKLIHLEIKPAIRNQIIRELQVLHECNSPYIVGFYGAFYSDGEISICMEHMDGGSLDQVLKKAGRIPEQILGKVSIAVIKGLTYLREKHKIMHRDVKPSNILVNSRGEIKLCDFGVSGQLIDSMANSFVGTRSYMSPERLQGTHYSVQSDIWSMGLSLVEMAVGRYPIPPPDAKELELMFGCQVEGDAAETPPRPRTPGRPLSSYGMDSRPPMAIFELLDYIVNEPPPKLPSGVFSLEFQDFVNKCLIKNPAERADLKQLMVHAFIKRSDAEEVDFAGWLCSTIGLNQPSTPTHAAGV
Sequence of MAP kinase-interacting serine/threonine-protein kinase 2 (Q9HBH9 whole entry, looked up): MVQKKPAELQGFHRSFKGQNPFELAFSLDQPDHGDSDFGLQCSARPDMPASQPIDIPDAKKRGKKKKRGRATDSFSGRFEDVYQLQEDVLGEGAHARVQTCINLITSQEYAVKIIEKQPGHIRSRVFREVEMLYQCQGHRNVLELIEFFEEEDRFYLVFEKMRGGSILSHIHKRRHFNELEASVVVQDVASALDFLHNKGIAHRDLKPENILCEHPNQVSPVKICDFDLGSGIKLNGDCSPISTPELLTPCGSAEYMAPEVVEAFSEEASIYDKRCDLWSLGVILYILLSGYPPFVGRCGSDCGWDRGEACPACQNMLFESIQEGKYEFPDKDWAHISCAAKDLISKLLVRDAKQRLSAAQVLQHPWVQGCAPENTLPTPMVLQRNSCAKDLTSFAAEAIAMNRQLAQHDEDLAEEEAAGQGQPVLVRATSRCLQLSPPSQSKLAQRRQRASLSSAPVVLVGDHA

COc1cc(N(C)c2ccnc3ccc(C(F)(F)F)cc23)cc(OC)c1OC
% binding [1]: 98%

Cc1ccc(-c2ccc3c(ccc4sc5c(c43)NC[C@@H](C)NC5=O)n2)cn1
% of inhibition [2]: 2%

Cc1cc([C@@H](C)Nc2ccccc2C(=O)O)c2nc(N3CCOCC3)cc(=O)n2c1 [AZD-6482]
% of control [3]: 100%

CC[C@@H]1[C@H](F)C(=O)N[C@@H]1COc1nccc2cc(C(N)=O)c(OC)cc12 [ZIMLOVISERTIB]
% of inhibition [4]: 20.8%

COc1cc(Nc2nc(C)cc(-c3cnn4nc(OC)ccc34)n2)cc(C(F)(F)F)c1
% of control [5]: 78%

CN(C)C/C=C/C(=O)Nc1ccc(C(=O)N2CCCC(Nc3ncc(Cl)c(-c4c[nH]c5ccccc45)n3)C2)cc1 (configuration not stated)
% of control [6]: 93%

Cc1cnc(Nc2ccc(F)cc2Cl)nc1-c1c[nH]c(C(=O)N[C@H](CO)c2cccc(Cl)c2)c1
% of inhibition [7]: 41%

Source: ChEMBL document CHEMBL5465560, “Selectivity Literature for EUbOPEN Chemogenomic Library” (2024)
